Values of other authors in patent US12533334B2, “Compositions and methods for modulating equine fatty acid profiles” (KENTUCKY EQUINE RESEARCH, INC., priority 2021, dated 2026).

System: aspirin-induced gastric hemorrhage
Settings: rats subjected to aspirin-induced gastric hemorrhage, dietary supplementation

| Structure (SMILES) | Gastric hemorrhage |
| --- | --- |
| CCCCC/C=C\C/C=C\C/C=C\CCCCC(=O)O [GLA, gamma linolenic acid] | no gastric hemorrhage |
| CCCCC/C=C\C/C=C\CCCCCCCC(=O)O [LA, linoleic acid] | 3 of 8 |
